Here are results for 17 compounds from patent US20220389013A1, “PYRIDOPYRIMIDINONE COMPOUNDS AND APPLICATIONS THEREOF” (BeBetter Med Inc., priority 2020, published 2022).

One data set deals with H358 (KRAS G12C). Briefly: Tumor cell proliferation inhibition assay (CellTiter-Glo), H358. The format is cell-based, Human. The following applies: 10% fetal bovine serum. As for the experimental part:
(§1) The H358, H23 or MIA-Paca2 cells were digested, centrifuged and resuspended, and the cell density was measured with a Scepter automatic cell counter. Cells were diluted to a solution containing 44,000 cells per milliliter, then added to a 96-well culture plate at 90 μL per well. The 96-well plate was placed in a 5% CO2 incubator at 37° C., and after the cells were cultured for 24 hours, different concentrations of the compounds to be tested were added. Cells were incubated with compounds in the presence of 10% fetal bovine serum for 72 hours. The inhibition of cell growth was assessed by measuring ATP levels by using the CellTiter-Glo Luminescent Cell Viability Assay Kit (details in manufacturer's instructions). In brief, 30 μL of CellTiter-Glo reagent was added to each well and the plate was shaken for 10 minutes to induce cell lysis, then the fluorescent signal was detected and recorded with a Fluoroskan Ascent FL (Thermo). Maximum signal values were obtained from cells treated with DMSO for 72 hours. Minimum signal values were obtained with medium only (zero cell number). Inhibition rate %=(maximum signal value-compound signal value)/(maximum signal value-minimum signal value)×100%. Data were processed by using Graphpad prism5 software. IC50 values were calculated using a sigmoidal dose-response curve.

For a further data set, the system named is MIA-Paca2 (KRAS G12C). Briefly: Tumor cell proliferation inhibition assay (CellTiter-Glo), MIA-Paca2. It counts as cell-based, Human. The following applies: 10% fetal bovine serum. Here is the method: as §1
In general terms: Cellular ATP, detected with luciferase, serves as a proxy for viable cell number.

Data set [1] in a line: Pharmacokinetic (PK) experiment in rats by gavage. It counts as in vivo. The following applies: rat, plasma, po, male SD rats, 20 mg/kg; for AUC(0-t): read-out: AUC0-24. Here is the method:
Male SD rats, weighing 180-250 g, were fasted overnight before the test and stomach administrated with the test compound at 20 mg/kg. 15 minutes, 30 minutes, and 1, 2, 4, 6, 8, and 24 hours after administration, blood was taken from the end of the tail of the fracture, about 0.3 mL per time point, then placed in a centrifuge tube containing K2-EDTA, and centrifuged (2000 g, 10 min, at 4° C.). Plasma was collected and stored in an ultra-low temperature freezer at −80° C. 50 μL of plasma samples were vortexed with 135 μL of acetonitrile (containing 1 μg/mL internal standard) for protein precipitation and centrifuged, and the supernatant was collected for LC-MS/MS analysis.
After the rats oral administrated with the Pyridopyrimidinone compounds provided by the present disclosure, the absorption is good, and the blood exposure is relatively high. […] Cmax refers to the maximum plasma concentration, T1/2 is the half-life, AUC0-24 refers to the area under the 0-24 hour time-concentration curve, and AUC0-inf refers to the area under the 0-Inf time-concentration curve.

Some results are limits rather than exact numbers.

A word on the IC50: it is the midpoint of a concentration-inhibition curve. A low value points to inhibition by little substance. On to `C=CC(=O)N1CCN(c2nc(=O)n(-c3c(C)ccnc3C(C)C)c3nc(-c4c(F)ccc5ccoc45)c(F)cc23)C[C@@H]1CC#N` (atropisomer, axis not shown; (M)) [Compound 100-1, 2-((2S)-1-acryloyl-4-(6-fluoro-7-(6-fluorobenzofuran-7-yl)-1(M)-(2-isopropyl-4-methylpyridin-3-yl)-2-oxo-1,2-dihydropyrido[2,3-d]pyrimidin-4-yl)piperazin-2-yl)acetonitrile], for which the 50% inhibitory concentration (IC50) in the data set on H358 (KRAS G12C) (Homo sapiens, NCI-H358, 72 h) lay in the range of 100 to 500 nM.
In the data set with H358 (KRAS G12C) (Homo sapiens, NCI-H358, 72 h), `C=CC(=O)N1CCN(c2nc(=O)n(-c3c(C)ccnc3C(C)C)c3nc(-c4c(F)ccc5ccoc45)c(Cl)cc23)C[C@@H]1CC#N` (atropisomer, axis not shown; (M)) [Compound 101-1, 2-((2S)-1-acryloyl-4-(6-chloro-7-(6-fluorobenzofuran-7-yl)-1(M)-(2-isopropyl-4-methylpyridin-3-yl)-2-oxo-1,2-dihydropyrido[2,3-d]pyrimidin-4-yl)piperazin-2-yl)acetonitrile] yielded a concentration for half-maximal inhibition (IC50) of 10 to 50 nM.
With `C=CC(=O)N1C[C@H](C)N(c2nc(=O)n(-c3c(C)ccnc3C(C)C)c3nc(-c4c(F)ccc5ccoc45)c(F)cc23)C[C@H]1C` (atropisomer, axis not shown; (P)) [Compound 89-2, 4-((2S,5R)-4-acryloyl-2,5-dimethylpiperazin-1-yl)-6-fluoro-7-(6-fluorobenzofuran-7-yl)-1(P)-(2-isopropyl-4-methylpyridin-3-yl)pyrido[2,3-d]pyrimidin-2(1H)-one], the figures for the 50% inhibitory concentration (IC50) in the data set with MIA-Paca2 (KRAS G12C) (72 hours) and in the data set on H358 (KRAS G12C) (72 hours) were more than 500 nM and 11 nM, respectively.
Broadly, the AUC(0-inf) is total exposure, with the tail of the curve extrapolated. Lower therefore signals less exposure. One may read the Cmax as the highest concentration seen after dosing. As a reminder, the Tmax is the time at which the peak concentration occurs. For orientation: half-life means the time in which the quantity being followed falls by half. A high value points to slow loss. With `C=CC(=O)N1CCN(c2nc(=O)n(-c3c(C)ccnc3C(C)C)c3nc(-c4c(F)ccc5c4OCO5)c(F)cc23)[C@@H](C)C1` [Compound 69, 4-((S)-4-acryloyl-2-methylpiperazin-1-yl)-6-fluoro-7-(5-fluorobenzo[d][1,3]dioxol-4-yl)-1-(2-isopropyl-4-methylpyridin-3-yl)pyrido[2,3-d]pyrimidin-2(1H)-one], the 50% inhibitory concentration (IC50) with MIA-Paca2 (KRAS G12C) (Homo sapiens, MIA PaCa-2, 72 h) fell in the range of 50 to 100 nM. In the data set with H358 (KRAS G12C) (Homo sapiens, NCI-H358, 72 h), this compound gave an IC50 of 10 to 50 nM. In addition, in data set [1], the AUC(0-inf) is 9930 ng·h/mL, the peak concentration (Cmax) turned out to be 4390 ng/mL, the Tmax stood at 0.83 h and the half-life was 5.38 h. Also, the AUC(0-t) in data set [1] is 9920 ng·h/mL.
With `C=CC(=O)N1CCN(c2nc(=O)n(-c3c(C)ccnc3C(C)C)c3nc(-c4c(F)ccc5c4OCCO5)c(F)cc23)[C@@H](C)C1` [Compound 72, 4-((S)-4-acryloyl-2-methylpiperazin-1-yl)-6-fluoro-7-(6-fluoro-2,3-dihydrobenzo[b][1,4]dioxin-5-yl)-1-(2-isopropyl-4-methylpyridin-3-yl)pyrido[2,3-d]pyrimidin-2(1H)-one], the IC50 in the data set with MIA-Paca2 (KRAS G12C) (Homo sapiens, MIA PaCa-2, 72 h) was in the range of 10 to 50 nM; in the data set with H358 (KRAS G12C) (Homo sapiens, NCI-H358, 72 h) it was 10 to 50 nM.
For `C=CC(=O)N1CCN(c2nc(=O)n(-c3c(C)ccnc3C(C)C)c3nc(-c4cccc5cc[nH]c45)c(F)cc23)[C@@H](C)C1` [Compound 82, (S)-4-(4-acryloyl-2-methylpiperazin-1-yl)-6-fluoro-7-(1H-indol-7-yl)-1-(2-isopropyl-4-methylpyridin-3-yl)pyrido[2,3-d]pyrimidin-2(1H)-one], the IC50 was more than 500 nM in the data set with MIA-Paca2 (KRAS G12C) (Homo sapiens, MIA PaCa-2, 72 h) and 1 nM in the data set with H358 (KRAS G12C) (Homo sapiens, NCI-H358, 72 h).
Consider `C=CC(=O)N1CCN(c2nc(=O)n(-c3c(C)ccnc3C(C)C)c3nc(-c4c(F)ccc5c4OCCO5)c(Cl)cc23)[C@@H](C)C1` [Compound 98, 4-((S)-4-acryloyl-2-methylpiperazin-1-yl)-6-chloro-7-(6-fluoro-2,3-dihydrobenzo[b][1,4]dioxin-5-yl)-1-(2-isopropyl-4-methylpyridin-3-yl)pyrido[2,3-d]pyrimidin-2(1H)-one], for which the IC50 in the data set with MIA-Paca2 (KRAS G12C) (Homo sapiens, MIA PaCa-2, 72 h) was 10 to 50 nM; in the data set on H358 (KRAS G12C) (Homo sapiens, NCI-H358, 72 h), less than 10 nM.
In the data set with MIA-Paca2 (KRAS G12C) (Homo sapiens, MIA PaCa-2, 72 h), `C=CC(=O)N1CCN(c2nc(=O)n(-c3c(C)ccnc3C(C)C)c3nc(-c4c(F)cc(F)c5ccoc45)c(Cl)cc23)[C@@H](C)C1` [Compound 102, 4-((S)-4-acryloyl-2-methylpiperazin-1-yl)-6-chloro-7-(4,6-difluorobenzofuran-7-yl)-1-(2-isopropyl-4-methylpyridin-3-yl)pyrido[2,3-d]pyrimidin-2(1H)-one] gave an IC50 of 10 to 50 nM. Moreover, the IC50 with H358 (KRAS G12C) (Homo sapiens, NCI-H358, 72 h) is less than 10 nM. In data set [1], the AUC(0-inf) turned out to be 14200 ng·h/mL, the peak concentration (Cmax) stood at 3720 ng/mL, the time of peak concentration (Tmax) was 1 h and the half-life is 2.85 h. The AUC(0-t) in data set [1] came to 14200 ng·h/mL.
Regarding `C=CC(=O)N1CCN(c2nc(=O)n(-c3c(C)ccnc3C(C)C)c3nc(-c4c(Cl)ccc5ccoc45)c(Cl)cc23)[C@@H](C)C1` [Compound 105, 4-((S)-4-acryloyl-2-methylpiperazin-1-yl)-6-chloro-7-(6-chlorobenzofuran-7-yl)-1-(2-isopropyl-4-methylpyridin-3-yl)pyrido[2,3-d]pyrimidin-2(1H)-one], the concentration for half-maximal inhibition (IC50) in the data set with MIA-Paca2 (KRAS G12C) (Homo sapiens, MIA PaCa-2, 72 h) was 10 to 50 nM; in the data set on H358 (KRAS G12C) (Homo sapiens, NCI-H358, 72 h), less than 10 nM.
Take `C=CC(=O)N1CCN(c2nc(=O)n(-c3c(C)cccc3C(C)C)c3nc(-c4c(F)ccc5ccoc45)c(F)cc23)[C@@H](C)C1` [Compound 106, 4-((S)-4-acryloyl-2-methylpiperazin-1-yl)-6-fluoro-7-(6-fluorobenzofuran-7-yl)-1-(2-isopropyl-6-methylphenyl)pyrido[2,3-d]pyrimidin-2(1H)-one]: the half-inhibitory concentration (IC50) is 100 to 500 nM in the data set on MIA-Paca2 (KRAS G12C) (Homo sapiens, MIA PaCa-2, 72 h) and 100 to 500 nM in the data set on H358 (KRAS G12C) (Homo sapiens, NCI-H358, 72 h).
Regarding `C=CC(=O)N1CCN(c2nc(=O)n(-c3c(C)ccnc3C(C)C)c3nc(-c4cccc5ccoc45)c(F)cc23)[C@@H](C)C1` [Compound 107, (S)-4-(4-acryloyl-2-methylpiperazin-1-yl)-7-(benzofuran-7-yl)-6-fluoro-1-(2-isopropyl-4-methylpyridin-3-yl)pyrido[2,3-d]pyrimidin-2(1H)-one], the 50% inhibitory concentration (IC50) with MIA-Paca2 (KRAS G12C) (Homo sapiens, MIA PaCa-2, 72 h) is more than 500 nM; in the data set with H358 (KRAS G12C) (Homo sapiens, NCI-H358, 72 h) it was 100 to 500 nM.
What is called melting point is the temperature of the solid-liquid transition. The compound `C=CC(=O)N1CCN(c2nc(=O)n(-c3c(C)ccnc3C(C)C)c3nc(-c4c(F)c(O)cc5ccoc45)c(Cl)cc23)[C@@H](C)C1` [Compound 110, 4-((S)-4-acryloyl-2-methylpiperazin-1-yl)-6-chloro-7-(6-fluoro-5-hydroxybenzofuran-7-yl)-1-(2-isopropyl-4-methylpyridin-3-yl)pyrido[2,3-d]pyrimidin-2(1H)-one] had a melting point of 92 to 104 °C. The same compound yielded a half-maximal inhibitory concentration (IC50) in the data set with H358 (KRAS G12C) (Homo sapiens, NCI-H358, 72 h) of 10 to 50 nM.
`C=CC(=O)N1CCN(c2nc(=O)n(-c3c(C)ccnc3C(C)C)c3nc(-c4c(F)c(OC)cc5ccoc45)c(Cl)cc23)[C@@H](C)C1` [Compound 111, 4-((S)-4-acryloyl-2-methylpiperazin-1-yl)-6-chloro-7-(6-fluoro-5-methoxybenzofuran-7-yl)-1-(2-isopropyl-4-methylpyridin-3-yl)pyrido[2,3-d]pyrimidin-2(1H)-one] returned a melting point of 101 to 113 °C. Further, the IC50 with H358 (KRAS G12C) (Homo sapiens, NCI-H358, 72 h) lay within 50 to 100 nM.
Turning to `C=CC(=O)N1CCN(c2nc(=O)n(-c3c(C)ccnc3C(C)C)c3nc(-c4c(Cl)ccc5ccoc45)c(F)cc23)[C@@H](C)C1` [Compound 112, 4-((S)-4-acryloyl-2-methylpiperazin-1-yl)-7-(6-chlorobenzofuran-7-yl)-6-fluoro-1-(2-isopropyl-4-methylpyridin-3-yl)pyrido[2,3-d]pyrimidin-2(1H)-one], the IC50 lay within 50 to 100 nM in the data set on MIA-Paca2 (KRAS G12C) (Homo sapiens, MIA PaCa-2, 72 h) and 10 to 50 nM with H358 (KRAS G12C) (Homo sapiens, NCI-H358, 72 h).
The compound `C=CC(=O)N1CCN(c2nc(=O)n(-c3c(C(C)C)ncnc3C(C)C)c3nc(-c4c(F)ccc5ccoc45)c(Cl)cc23)[C@@H](C)C1` [Compound 118, 4-((S)-4-acryloyl-2-methylpiperazin-1-yl)-6-chloro-1-(4,6-diisopropylpyrimidin-5-yl)-7-(6-fluorobenzofuran-7-yl)pyrido[2,3-d]pyrimidin-2(1H)-one] came in with a melting point of 254 to 256 °C. For the same compound, in the data set with H358 (KRAS G12C) (Homo sapiens, NCI-H358, 72 h), the IC50 was less than 10 nM.
As to `C=CC(=O)N1CCN(c2nc(=O)n(-c3ccccc3C(C)C)c3nc(-c4c(F)ccc5ccoc45)c(F)cc23)[C@@H](C)C1` [Compound 120, 4-((S)-4-acryloyl-2-methylpiperazin-1-yl)-6-fluoro-7-(6-fluorobenzofuran-7-yl)-1-(2-isopropylphenyl)pyrido[2,3-d]pyrimidin-2(1H)-one], the IC50 was 100 to 500 nM in the data set on MIA-Paca2 (KRAS G12C) (Homo sapiens, MIA PaCa-2, 72 h) and 11 nM in the data set on H358 (KRAS G12C) (Homo sapiens, NCI-H358, 72 h).
In the same order, the values of `C=CC(=O)N1CCN(c2nc(=O)n(-c3c(C(C)C)ccnc3C(C)C)c3nc(-c4c(F)ccc5ccoc45)c(F)cc23)[C@@H](C)C1` [Compound 121, 4-((S)-4-acryloyl-2-methylpiperazin-1-yl)-1-(2,4-diisopropylpyridin-3-yl)-6-fluoro-7-(6-fluorobenzofuran-7-yl)pyrido[2,3-d]pyrimidin-2(1H)-one] are 10 to 50 nM and 10 to 50 nM.
